Results on eight compounds are retold here after patent EP0557345B1, “1,3-BIS- 3-(MONO- OR POLY-HYDROXY)ACYLAMINO-5-(MONO- OR POLY-HYDROXYALKYL)AMINOCARBONYL-2,4,6-TRIIODO-BENZOYL-AMINO]-HYDROXY- OR HYDROXYALKYL-PROPANES, THEIR METHODS OF PREPARATION AND X-RAY CONTRAST MEDIA CONTAINING THEM” (DIBRA S.p.A., priority 1990, dated 1992).

The nature of data set [1]: Viscosity of the solution. The data set is classed as physicochemical. The following applies: 37°C, 300 mgI/ml.
Data set [2] in a line: Osmolality of the solution. The following applies: 37°C, 300 mgI/ml. The data set is classed as physicochemical.
The nature of the next data set: Solubility in water. In kind it is physicochemical.
Another data set relates to mice. Kind of data set: Acute toxicity, intravenous administration in mice. The data set is classed as in vivo. The following applies: 14 days of observation.
Data set [3] is described as follows: Plasma kinetics after intravenous administration in rats. The data set is classed as in vivo. The following applies: rat, 200 mgI/kg; for half-life: iv. The procedure: The apparent volume of distribution is 123.5 ml/kg showing that the product is distributed in plasma and the extracellular spaces.
The subject of a further data set is rats. Kind of data set: Acute toxicity, intracisternal administration in rats. In kind it is in vivo. The following applies: 7 days of observation.
Data set [4] is described as follows: Elimination through urine and bile after administration. In kind it is in vivo, rats. The following applies: after 7 hours from the administration. The procedure:
Elimination occurs mainly through urinary pathway and in less extent through the bile. After 7 hours from the administration, 76.7% of the administered dose was found in the urine and 3.5% in the bile.

Read-outs that look alike come from different tables or passages of the source. A value given as a limit tells only on which side of the number the result lay.

As to `CC(=O)N(CC(O)CN(C(C)=O)c1c(I)c(C(=O)NCC(O)CO)c(I)c(C(=O)NCC(O)CO)c1I)c1c(I)c(C(=O)NCC(O)CO)c(I)c(C(=O)NCC(O)CO)c1I` (stereo not shown) [C, 1,3-bis-[N-[3,5-bis-(2,3-dihydroxy-propyl)aminocarbonyl-2,4,6-triiodo-phenyl]-acetylamino]-2-hydroxy-propane, reference compound], the Viscosity in data set [1] is recorded as 8.7 mPa·s. In data set [2], this compound yielded an Osmolality of 196 mosm/kg H₂O.

Compound `C[C@H](O)C(=O)Nc1c(I)c(C(=O)NCC(O)CNC(=O)c2c(I)c(NC(=O)CO)c(I)c(C(=O)NCC(O)CO)c2I)c(I)c(C(=O)NC(CO)CO)c1I` (stereo partly drawn) [Example 10, 1-[3-(L-2-hydroxy-propionyl)amino-5-(1,3-dihydroxyisopropyl)aminocarbonyl-2,4,6-triiodo-benzoyl-amino]-3-[3-hydroxyacetylamino-5-(2,3-dihydroxy-propyl)aminocarbonyl-2,4,6-triiodo-benzoyl-amino]-2-hydroxy-propane] returned a Viscosity in data set [1] of 8.6 mPa·s. Further, in data set [2], the Osmolality came out at 131 mosm/kg H₂O.

Turning to `C[C@H](O)C(=O)Nc1c(I)c(C(=O)NCC(O)CNC(=O)c2c(I)c(NC(=O)CO)c(I)c(C(=O)NC(CO)C(O)CO)c2I)c(I)c(C(=O)NC(CO)CO)c1I` (stereo partly drawn) [Example 11, 1-[3-hydroxyacetylamino-5-(1,3,4-trihydroxy-2-butyl)aminocarbonyl-2,4,6-triiodo-benzoyl-amino]-3-[3-(L-2-hydroxy-propionyl)amino-5-(1,3-dihydroxy-isopropyl)aminocarbonyl-2,4,6-triiodo-benzoyl-amino]-2-hydroxypropane], the “Solubility in H₂O” value in “Solubility in water” (at 25°C) is listed as over 100 % w/v.

For `CN(CC(O)CN(C)C(=O)c1c(I)c(NC(=O)CO)c(I)c(C(=O)NC(CO)C(O)CO)c1I)C(=O)c1c(I)c(NC(=O)CO)c(I)c(C(=O)NC(CO)C(O)CO)c1I` (stereo not shown) [Example 16, 1,3-bis-[N-methyl-N-[3-hydroxyacetylamino-5-(1,3,4-trihydroxy-2-butyl)aminocarbonyl-2,4,6-triiodo-benzoyl]-amino]-2-hydroxy-propane], the “Solubility in H₂O” value in the data set “Solubility in water” (at 20°C) came to 100 % w/v.

As usually defined, the clearance is the volume of plasma or blood freed of the substance per unit of time. For orientation: half-life means how long it takes for the measured level to halve. Turning to `C[C@H](O)C(=O)Nc1c(I)c(C(=O)NCC(O)CNC(=O)c2c(I)c(NC(=O)[C@H](C)O)c(I)c(C(=O)NC(CO)CO)c2I)c(I)c(C(=O)NC(CO)CO)c1I` [Example 1, 1,3-bis-[3-(L-2-hydroxy-propionyl)amino-5-(1,3-dihydroxy-isopropyl)-aminocarbonyl-2,4,6-triiodo-benzoyl-amino]-2-hydroxy-propane], the “LD₅₀ C.L. 95%” value in the data set with mice is over 15000 mgI/kg; with rats, over 900 mgI/kg. Besides, the Vd in data set [3] (read-out: apparent volume of distribution) is 0.123 L/kg. In addition, the clearance in data set [3] (read-out: total clearance) worked out at 7.9 mL/min/kg. For the same compound, the half-life is 2.9 min in data set [3] (read-out: half life for the distribution phase) and 22.9 min in data set [3] (read-out: half life for the elimination phase). In data set [1], this compound had a Viscosity of 8.5 mPa·s. For the same compound, in data set [4], the “administered dose found in the bile” value came to 3.5%. Besides, in data set [4], the “administered dose found in the urine” value is 76.7%. Also, the Osmolality in data set [2] was found to be 141 mosm/kg H₂O.

As to `C[C@H](O)C(=O)Nc1c(I)c(C(=O)NCC(O)CO)c(I)c(C(=O)N(C)CC(O)CN(C)C(=O)c2c(I)c(NC(=O)[C@H](C)O)c(I)c(C(=O)NCC(O)CO)c2I)c1I` (stereo partly drawn) [Example 8, 1,3-bis-[N-methyl-N-[3-(L-2-hydroxy-propionyl)amino-5-(2,3-dihydroxy-propyl)aminocarbonyl-2,4,6-triiodobenzoyl]amino]-2-hydroxy-propane], the “Solubility in H₂O” value in the data set “Solubility in water” (at 20°C) was over 100 % w/v.

Regarding `O=C(CO)Nc1c(I)c(C(=O)NCC(O)CNC(=O)c2c(I)c(NC(=O)CO)c(I)c(C(=O)NC(CO)C(O)CO)c2I)c(I)c(C(=O)NC(CO)C(O)CO)c1I` (stereo not shown) [Example 15, 1,3-bis-[3-hydroxyacetylamino-5-(1,3,4-trihydroxy-2-butyl)aminocarbonyl-2,4,6-triiodo-benzoyl-amino]-2-hydroxy-propane], the “Solubility in H₂O” value in “Solubility in water” (at 20°C) worked out at 100 % w/v.

Regarding `C[C@H](O)C(=O)Nc1c(I)c(C(=O)NCC(O)CNC(=O)c2c(I)c(NC(=O)[C@H](C)O)c(I)c(C(=O)NC(CO)C(O)CO)c2I)c(I)c(C(=O)NC(CO)C(O)CO)c1I` (stereo partly drawn) [Example 4, 1,3-bis-[3-(L-2-hydroxy-propionyl)amino-5-(1,3,4-tri-hydroxy-2-butyl)aminocarbonyl-2,4,6-triiodo-benzoyl-amino]-2-hydroxy-propane], the “Solubility in H₂O” value in the data set “Solubility in water” (at 20°C) was determined as 100 % w/v.
